Results as given in PMC2765569 (Biochemistry, 2009).

Assays:
[1] = biological target: FTase (wild-type protein farnesyltransferase) (Rattus norvegicus, UniProt Q02293+Q04631); test: Single-turnover; format: biochemical; conditions: 800 nM FTase, 200 nM FPP, 25 μM peptide, 5 μM MDCC-PBP, 34 units mL^−1 PPiase, 50 mM HEPPSO pH 7.8, 5 mM TCEP, 5 mM MgCl2, 25 °C; for Single turnover rate constant kSTO, X=S: dansyl-GCVa2S panel
FTase = FTase (Rattus norvegicus, UniProt Q02293+Q04631); test: Radioactive assay of FTase-catalyzed farnesylation; format: biochemical; conditions: data not shown, farnesylated slowly
Chain of FTase (Q02293 whole entry, one chain of several): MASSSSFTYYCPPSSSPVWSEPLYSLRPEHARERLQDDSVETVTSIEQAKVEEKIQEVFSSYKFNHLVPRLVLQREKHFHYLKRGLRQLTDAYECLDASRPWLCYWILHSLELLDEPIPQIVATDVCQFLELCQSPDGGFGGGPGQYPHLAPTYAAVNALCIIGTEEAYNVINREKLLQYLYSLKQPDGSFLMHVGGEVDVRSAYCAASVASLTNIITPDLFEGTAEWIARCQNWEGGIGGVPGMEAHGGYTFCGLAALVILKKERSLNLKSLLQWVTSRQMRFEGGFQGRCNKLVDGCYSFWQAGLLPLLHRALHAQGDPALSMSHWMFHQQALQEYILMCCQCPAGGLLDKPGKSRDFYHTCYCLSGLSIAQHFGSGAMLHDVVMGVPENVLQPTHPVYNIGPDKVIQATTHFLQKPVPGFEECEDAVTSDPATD

| Single turnover rate constant kSTO, X=S [1] [s⁻¹] | Substance | further results |
| --- | --- | --- |
|  | dansyl-GCVGM | Single turnover rate constant kSTO, X=M ([1]; dansyl-GCVa2M panel): 0.26 ± 0.01 s⁻¹ |
| 0.092 ± 0.004 | dansyl-GCVGS |  |
| 3.8 ± 0.5 | dansyl-GCVLS |  |
|  | dansyl-GCVRS | apparent value for kcat/KM (FTase): < 1000 M⁻¹ s⁻¹ |
